Experimental data: patent US20250270170A1, “2,3-DIMETHOXY-5-METHYL-1,4-BENZOQUINONE ALKYL ALCOHOL DERIVATIVE AND USE THEREOF” (BEIJING ANJIANXI BIO-MEDICAL TECHNOLOGY CO., LTD., priority 2021, published 2025)

Key:
A549 cells = experiment: Cell EDU proliferation assay, A549; assay type: cell-based, human; conditions: 150 μM
Experimental: The compound of formula (I) at a concentration of 150 μM was co-cultured with the cells for 42 h, and then the FBS concentration in the FBS stimulation well was increased to 20%. The cells were cultured for another 6 h, and then detected using a Cell-Light EDUApollo567 kit.
(1) Cells in the logarithmic growth phase were taken, and inoculated into a 24-well culture plate at 1×10^4 cells per well. The culture plate was cultured in a 37° C. incubator under the condition of 5% CO2, and drug was added according to the assay design when the cells adhered to the wall.
(2) After the drug treatment, the Cell-Light EDU Apollo567 kit was taken out. The reagent A in the kit was diluted with 1640 complete culture medium at a ratio of 1000:1 to prepare a 50 μM EDU culture medium, 300 μl of which was configured to each well of the 24-well plate. The 24-well plate was taken out from the incubator, and the original culture medium was aspirated with a vacuum aspirator. […]
(12) 150 μl of PBS was added to each well to wash once, and the PBS was discarded. Then, 200 μl of PBS was added, and the plate was placed on an inverted fluorescence microscope to take pictures. 6 fields of view were taken for each well under a 200× field of view, and the proportion of EDU-positive cells among 100 cells was calculated. […]

NCI-H460 cells = experiment: CCK-8 cell proliferation assay, NCI-H460; assay type: cell-based; conditions: Homo sapiens
Experimental: (1) Cells in the logarithmic growth phase were taken and digested to make a cell suspension. 20 μl of the cell suspension was taken with a pipette, and added to a CountStar disposable cell counting plate for cell counting, and the counting results were recorded. The cell concentration was adjusted to 30,000 to 40,000 cells/ml (note: different cells have different growth rates, so the number of cells in each well was slightly different).
(2) A 96-well plate was taken. Since the wells in the outermost circle of the culture plate were easy to evaporate and dry, causing inaccurate volumes, and increasing errors, 100 μl of PBS was added to the wells in the outermost circle, which were not used as assay wells.
(3) The adjusted cell suspension was added to the 96-well plate, with 100 μl in each well, resulting approximately 3000 to 4000 cells in each well. The plate was placed in a 37° C. incubator under the condition of 5% CO2 for cell culture, and the drug was added when the cells adhered to the wall.
(4) Drug dilution. The concentration gradient was set as: 0 μM, 10 μM, 50 μM, 100 μM, and 200 μM, with 3 duplicates for each concentration. In addition, blank control wells containing only culture medium and drug without cells were also set.
(5) The plate was incubated in the incubator for 24 h, 48 h and 72 h, respectively. After reaching the set time point, the 96-well plate was taken out from the incubator, and 10 μl of CCK-8 reagent was added to each well, taking care to avoid bubbles. The plate was shaked to mix evenly, and put back into the incubator to culture for another 2 hours.
(6) To detect the absorbance, the 96-well plate was placed in a […], and the absorbance value (OD value) at 450 nm was detected. The data was recorded. Cell viability=(OD value of the assay well−OD value of the blank control well)/(OD value of the solvent control well−OD value of the blank control well)×100%.
(7) The data was imported into GraphPad Prism5 for plotting. The IC50 values were calculated, and the curves were drawn.

COC1=C(OC)C(=O)C(CCCCCCCCCCOC(=O)Cc2c(C)n(C(=O)c3ccc(Cl)cc3)c3ccc(OC)cc23)=C(C)C1=O [compound of formula (I)]
proportion of proliferating cells (EDU) (A549 cells; 48 hours, vs CTL (0 μM)): significantly reduced | cell proliferation under FBS stimulation (EDU) (A549 cells; FBS increased to 20% for last 6 h): can inhibit the cell proliferation effect | IC50 (NCI-H460 cells; 24 h): 125.3 ± 1.01 µM | IC50 (NCI-H460 cells; 48 h): 66.4 ± 0.87 µM | IC50 (NCI-H460 cells; 72 h): 48.5 ± 1.12 µM
